# Measurements from the NIST ThermoML archive (doi:10.1016/j.jct.2015.05.019).
# Numbers after ± are expanded uncertainties.
# Columns and labels:
# [1] = Crystal; DTA
# [2] = Molar enthalpy of transition or fusion; conditions: Crystal; DSC
compound,measurement,setting,value
O=c1c(-c2ccc(O)cc2)coc2cc(O[C@@H]3O[C@H](CO)[C@@H](O)[C@H](O)[C@H]3O)cc(O)c12 [genistin],Normal melting temperature,[1],274.32 ± 0.5 °C
same,Molar enthalpy of transition or fusion,[2],15.7 ± 3.11 kcal/mol
